This passage reports IC50 results from ChEMBL document CHEMBL1126482, “Novel Y2-selective, reduced-size agonists of neuropeptide Y” (Bioorg Med Chem Lett, 1993).

Square brackets hold non-standard residues; d marks the D form. Peptide text beside a SMILES is read from it. Cha = N[C@@H](CC1CCCCC1)C(=O)O

In assay [1] the target is T1, Neuropeptide Y receptor type 1 (Homo sapiens, UniProt P25929).
T1 sequence (P25929 whole entry): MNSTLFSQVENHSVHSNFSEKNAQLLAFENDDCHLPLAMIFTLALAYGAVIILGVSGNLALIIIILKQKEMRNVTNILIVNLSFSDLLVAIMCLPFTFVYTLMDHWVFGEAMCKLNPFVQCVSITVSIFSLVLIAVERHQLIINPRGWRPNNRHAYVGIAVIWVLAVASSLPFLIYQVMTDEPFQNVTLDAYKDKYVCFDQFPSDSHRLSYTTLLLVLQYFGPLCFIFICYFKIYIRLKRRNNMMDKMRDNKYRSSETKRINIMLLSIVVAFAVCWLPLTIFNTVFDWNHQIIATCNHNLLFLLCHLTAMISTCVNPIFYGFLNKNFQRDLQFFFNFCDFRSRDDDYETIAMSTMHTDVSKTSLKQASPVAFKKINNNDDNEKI
The assay is described as follows: Compound was evaluated for its inhibitory activity against human neuropeptide Y1 receptor expressing SK-N-MC cells. The assay is classed as cell-based.

Assay [2] concerns the target T2, Neuropeptide Y receptor type 2 (Homo sapiens, UniProt P49146).
T2 sequence (P49146 whole entry): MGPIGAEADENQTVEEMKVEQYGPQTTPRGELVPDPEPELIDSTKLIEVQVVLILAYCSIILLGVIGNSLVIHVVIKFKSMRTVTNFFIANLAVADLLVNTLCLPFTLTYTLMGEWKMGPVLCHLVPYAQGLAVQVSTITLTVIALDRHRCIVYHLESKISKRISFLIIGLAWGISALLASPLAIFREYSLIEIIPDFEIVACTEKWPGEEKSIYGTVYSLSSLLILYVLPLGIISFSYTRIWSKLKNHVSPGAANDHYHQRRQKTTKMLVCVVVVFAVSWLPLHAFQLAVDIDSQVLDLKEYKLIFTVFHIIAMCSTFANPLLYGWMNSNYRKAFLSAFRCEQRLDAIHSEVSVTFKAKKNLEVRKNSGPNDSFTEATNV
Nature of the assay: Compound was evaluated for its inhibitory activity against human neuropeptide Y2 receptor expressing LN319 cells. It counts as cell-based.

The species named for the next assay is Rattus norvegicus. The assay is described as follows: Compound was evaluated for its ability to inhibit electrically evoked rat vas deferens contractions. The assay is classed as functional.

One may read the IC50 as the concentration at which inhibition is half-maximal. Lower therefore signals greater potency in that assay.

Regarding `CC[C@H](C)[C@H](NC(=O)[C@H](Cc1ccc(O)cc1)NC(=O)[C@H](Cc1c[nH]cn1)NC(=O)[C@H](CCCN=C(N)N)NC(C)=O)C(=O)N[C@@H](CC(N)=O)C(=O)N[C@@H](CC(C)C)C(=O)N[C@@H](CC1CCCCC1)C(=O)N[C@H](C(=O)N[C@@H](CCCN=C(N)N)C(=O)N[C@@H](CCC(N)=O)C(=O)N[C@@H](CCCN=C(N)N)C(=O)N[C@@H](Cc1ccc(O)cc1)C(=O)O)[C@@H](C)O` (Ac-RHYINL[Cha]TRQRY-OH), the IC50 was 39 nM in assay [1] (sk-n-mc) and 5 nM in assay [2].
The like results for `CC[C@H](C)[C@H](NC(=O)[C@H](Cc1ccc(O)cc1)NC(=O)[C@H](Cc1c[nH]cn1)NC(=O)[C@H](CCCN=C(N)N)NC(C)=O)C(=O)N[C@@H](CC(N)=O)C(=O)N[C@@H](CC1CCCCC1)C(=O)N[C@H](C(=O)N[C@H](C(=O)N[C@@H](CCCN=C(N)N)C(=O)N[C@@H](CCC(N)=O)C(=O)N[C@@H](CCCN=C(N)N)C(=O)N[C@@H](Cc1ccc(O)cc1)C(=O)O)[C@@H](C)O)[C@@H](C)CC` (Ac-RHYIN[Cha]ITRQRY-OH) were, in that order, 44000 nM and 8 nM.
Turning to `CC[C@H](C)[C@H](NC(=O)[C@H](Cc1ccc(O)cc1)NC(=O)[C@H](Cc1c[nH]cn1)NC(=O)[C@H](CCCN=C(N)N)NC(C)=O)C(=O)N[C@@H](CC(N)=O)C(=O)N[C@@H](CC1CCCCC1)C(=O)N[C@@H](CC1CCCCC1)C(=O)N[C@H](C(=O)N[C@@H](CCCN=C(N)N)C(=O)N[C@@H](CCC(N)=O)C(=O)N[C@@H](CCCN=C(N)N)C(=O)N[C@@H](Cc1ccc(O)cc1)C(=O)O)[C@@H](C)O` (Ac-RHYIN[Cha][Cha]TRQRY-OH), the IC50 in assay [1] (sk-n-mc) worked out at 26000 nM; in assay [2], 3 nM.
Ac-RHYINLITRQRY-OH: the IC50 in assay [1] was determined as 35000 nM; in the assay filed under Rattus norvegicus, 4500 nM.
